Measurements: patent publication US12268690B2, “Treatments for mutations in acute myeloid leukemia” (OREGON HEALTH & SCIENCE UNIVERSITY, priority 2018, dated 2025)

Test system: freshly isolated mononuclear cells from AML samples
Test: Ex vivo functional drug screen (MTS viability, AUC) on primary AML samples, compared by mutation or clinical group
Type: cell-based, human

Compound: C#Cc1cccc(Nc2ncnc3cc(OCCOC)c(OCCOC)cc23)c1 [erlotinib]
- drug sensitivity mutant vs wild type (average difference in AUC; top left quadrant of volcano plot) (FLT3_ITD:DNMT3A): erlotinib
- drug sensitivity mutant vs wild type (average difference in AUC; top left quadrant of volcano plot) (NPM1): erlotinib
- drug sensitivity mutant vs wild type (average difference in AUC; top left quadrant of volcano plot) (NPM1:FLT3_ITD:DNMT3A): erlotinib
- drug sensitivity mutant vs wild type (average difference in AUC; top left quadrant of volcano plot) (NPM1:FLT3_ITD:TET2): erlotinib
- drug sensitivity mutant vs wild type (average difference in AUC; top left quadrant of volcano plot) (NPM1:IDH1): erlotinib
- drug sensitivity mutant vs wild type (average difference in AUC; top left quadrant of volcano plot) (NPM1:IDH2): erlotinib
- drug sensitivity mutant vs wild type (average difference in AUC; top left quadrant of volcano plot) (NPM1:SRSF2): erlotinib

Compound: CC1(C)CNc2cc(NC(=O)c3cccnc3NCc3ccncc3)ccc21 [motesanib]
- drug sensitivity mutant vs wild type (average difference in AUC; top left quadrant of volcano plot) (FLT3_ITD:RUNX1): motesanib

Compound: O=c1ncn2nc(Sc3ccc(F)cc3F)ccc2c1-c1c(Cl)cccc1Cl [vx-745]
- drug sensitivity mutant vs wild type (average difference in AUC; top left quadrant of volcano plot) (FLT3_ITD): vx-745
- drug sensitivity mutant vs wild type (average difference in AUC; top left quadrant of volcano plot) (FLT3_ITD:ASXL1): vx-745
- drug sensitivity mutant vs wild type (average difference in AUC; top left quadrant of volcano plot) (NPM1:IDH2): vx-
- drug sensitivity mutant vs wild type (average difference in AUC; top left quadrant of volcano plot) (NPM1:SRSF2): vx-745

Compound: JAK Inhibitor I
- sensitivity to JAK kinase inhibitors, mutant versus wild type (average AUC difference, one-way ANOVA) (BCOR mutation alone or co-mutation of BCOR with DNMT3A or SRSF2): no difference in sensitivity
- sensitivity to JAK kinase inhibitors, mutant versus wild type (average AUC difference, one-way ANOVA) (co-mutation of BCOR with RUNX1): increased sensitivity
